{"source": "patent US11098038B2", "about": "“Imidazole-based anticancer agents and derivatives thereof, and methods of making and using same” (The University of Toledo, priority 2017, dated 2021)", "format_in_all_cases": "cell-based", "key": {"UACC-257": {"tested_on": "UACC-257", "experiment": "NCI 60 screen, UACC-257", "details": "Homo sapiens, Melanoma", "experimental": "(§1) The compounds synthesized were tested at the National Cancer Institute (NCI) for anti-proliferative activity in the 60 human tumor cell line assay."}, "MDA-MB-231/ATCC": {"tested_on": "MDA-MB-231/ATCC", "experiment": "NCI 60 screen, MDA-MB-231/ATCC", "details": "Homo sapiens, Breast", "experimental": "as §1"}, "EKVX": {"tested_on": "EKVX", "experiment": "NCI 60 screen, EKVX", "details": "Homo sapiens, Non-Small Cell Lung", "experimental": "as §1"}, "SN12C": {"tested_on": "SN12C", "experiment": "NCI 60 screen, SN12C", "details": "Homo sapiens, Renal", "experimental": "as §1"}, "DU-145": {"tested_on": "DU-145", "experiment": "NCI 60 screen, DU-145", "details": "Homo sapiens, Prostatic", "experimental": "as §1"}, "UO-31": {"tested_on": "UO-31", "experiment": "NCI 60 screen, UO-31", "details": "Homo sapiens, Renal", "experimental": "as §1"}, "MCF7": {"tested_on": "MCF7", "experiment": "NCI 60 screen, MCF7", "details": "Homo sapiens, Breast", "experimental": "as §1"}, "HOP-62": {"tested_on": "HOP-62", "experiment": "NCI 60 screen, HOP-62", "details": "Homo sapiens, Non-Small Cell Lung", "experimental": "as §1"}, "NCI-H522": {"tested_on": "NCI-H522", "experiment": "NCI 60 screen, NCI-H522", "details": "Homo sapiens, Non-Small Cell Lung", "experimental": "as §1"}, "HOP-92": {"tested_on": "HOP-92", "experiment": "NCI 60 screen, HOP-92", "details": "Homo sapiens, Non-Small Cell Lung", "experimental": "as §1"}, "786-0": {"tested_on": "786-0", "experiment": "NCI 60 screen, 786-0", "details": "Homo sapiens, Renal", "experimental": "as §1"}, "A498": {"tested_on": "A498", "experiment": "NCI 60 screen, A498", "details": "Homo sapiens, Renal", "experimental": "as §1"}, "PC-3": {"tested_on": "PC-3", "experiment": "NCI 60 screen, PC-3", "details": "Homo sapiens, Prostatic", "experimental": "as §1"}, "HCC-2998": {"tested_on": "HCC-2998", "experiment": "NCI 60 screen, HCC-2998", "details": "Homo sapiens, Colon", "experimental": "as §1"}, "SNB-19": {"tested_on": "SNB-19", "experiment": "NCI 60 screen, SNB-19", "details": "Homo sapiens, CNS", "experimental": "as §1"}, "U251": {"tested_on": "U251", "experiment": "NCI 60 screen, U251", "details": "Homo sapiens, U-251, CNS", "experimental": "as §1"}, "RPMI-8226": {"tested_on": "RPMI-8226", "experiment": "NCI 60 screen, RPMI-8226", "details": "Homo sapiens, Leukemia", "experimental": "as §1"}, "HT29": {"tested_on": "HT29", "experiment": "NCI 60 screen, HT29", "details": "Homo sapiens, HT-29, Colon", "experimental": "as §1"}, "[1]": {"tested_on": "chromosome alignment, centromeres, and spindle body", "experiment": "Fluorescence microscopy of chromosome alignment, centromeres and spindle body", "details": "FIGS. 8A-8B", "excerpt": "FIGS. 8A-8B: Color images showing effects of compound 25 on chromosome alignment, centromeres, and spindle body. Microtubules that make up the mitotic spindle are detected with an antibody linked to a green fluorophore, which was detected with a fluorescence microscope. Centromeres were detected with a far red fluorophore (they are pseudocolored pink). DNA was detected with Hoechst DNA stain, which is blue.\nIn normal cells (FIG. 8A, upper two panels), chromosomes line up between the spindle poles at metaphase. In cells treated with compound 25 for several hours (FIG. 8A, lower two panels), cells still enter mitosis but centromeres are found all over the cell (not just in the middle between the poles of the spindle). […] However, when ZM is combined with compound 25, what was observed was a very dramatic disruption of spindle architecture. […] Without wishing to be bound by theory, it is believed that both Aurora B and the targets of compound 25 work in parallel to control tubulin function. When either one is inhibited alone, there is no effect since the other pathway compensates. When both are inhibited, the defect is detected."}, "OVCAR-5": {"tested_on": "OVCAR-5", "experiment": "NCI 60 screen, OVCAR-5", "details": "Homo sapiens, Ovarian", "experimental": "as §1"}, "SK-MEL-2 [2]": {"tested_on": "SK-MEL-2", "experiment": "NCI 60 screen, SK-MEL-2 (first line)", "details": "Homo sapiens; Melanoma, SK-MEL-2 (first of two lines so named, r37)", "experimental": "as §1"}, "UACC-62": {"tested_on": "UACC-62", "experiment": "NCI 60 screen, UACC-62", "details": "Homo sapiens, Melanoma", "experimental": "as §1"}, "HCT-116": {"tested_on": "HCT-116", "experiment": "NCI 60 screen, HCT-116", "details": "Homo sapiens, Colon", "experimental": "as §1"}, "SW-620": {"tested_on": "SW-620", "experiment": "NCI 60 screen, SW-620", "details": "Homo sapiens, Colon", "experimental": "as §1"}, "OVCAR-4": {"tested_on": "OVCAR-4", "experiment": "NCI 60 screen, OVCAR-4", "details": "Homo sapiens, Ovarian", "experimental": "as §1"}, "OVCAR-8": {"tested_on": "OVCAR-8", "experiment": "NCI 60 screen, OVCAR-8", "details": "Homo sapiens, Ovarian", "experimental": "as §1"}, "SR": {"tested_on": "SR", "experiment": "NCI 60 screen, SR", "details": "Homo sapiens, Leukemia", "experimental": "as §1"}, "SK-MEL-2 [3]": {"tested_on": "SK-MEL-2", "experiment": "NCI 60 screen, SK-MEL-2 (second line)", "details": "Homo sapiens; Melanoma, SK-MEL-2 (second of two lines so named, r38)", "experimental": "as §1"}, "NCI-460": {"tested_on": "NCI-460", "experiment": "NCI 60 screen, NCI-460", "details": "Homo sapiens, Non-Small Cell Lung", "experimental": "as §1"}, "MALME-3M": {"tested_on": "MALME-3M", "experiment": "NCI 60 screen, MALME-3M", "details": "Homo sapiens, Melanoma", "experimental": "as §1"}, "NCI-H23": {"tested_on": "NCI-H23", "experiment": "NCI 60 screen, NCI-H23", "details": "Homo sapiens, Non-Small Cell Lung", "experimental": "as §1"}, "MDA-MB-435": {"tested_on": "MDA-MB-435", "experiment": "NCI 60 screen, MDA-MB-435", "details": "Homo sapiens, Melanoma", "experimental": "as §1"}, "SF-539": {"tested_on": "SF-539", "experiment": "NCI 60 screen, SF-539", "details": "Homo sapiens, CNS", "experimental": "as §1"}, "TK-10": {"tested_on": "TK-10", "experiment": "NCI 60 screen, TK-10", "details": "Homo sapiens, Renal", "experimental": "as §1"}, "ACHN": {"tested_on": "ACHN", "experiment": "NCI 60 screen, ACHN", "details": "Homo sapiens, Renal", "experimental": "as §1"}, "LOX IMVI": {"tested_on": "LOX IMVI", "experiment": "NCI 60 screen, LOX IMVI", "details": "Homo sapiens, Melanoma", "experimental": "as §1"}, "SK-OV-3": {"tested_on": "SK-OV-3", "experiment": "NCI 60 screen, SK-OV-3", "details": "Homo sapiens, Ovarian", "experimental": "as §1"}, "MOLT-4": {"tested_on": "MOLT-4", "experiment": "NCI 60 screen, MOLT-4", "details": "Homo sapiens, Leukemia", "experimental": "as §1"}, "HL-60(TB)": {"tested_on": "HL-60(TB)", "experiment": "NCI 60 screen, HL-60(TB)", "details": "Homo sapiens, Leukemia", "experimental": "as §1"}, "RXF393": {"tested_on": "RXF393", "experiment": "NCI 60 screen, RXF393", "details": "Homo sapiens, RXF 393, Renal", "experimental": "as §1"}, "SK-MEL-5": {"tested_on": "SK-MEL-5", "experiment": "NCI 60 screen, SK-MEL-5", "details": "Homo sapiens, Melanoma", "experimental": "as §1"}, "OVCAR-3": {"tested_on": "OVCAR-3", "experiment": "NCI 60 screen, OVCAR-3", "details": "Homo sapiens, Ovarian", "experimental": "as §1"}, "SF-295": {"tested_on": "SF-295", "experiment": "NCI 60 screen, SF-295", "details": "Homo sapiens, CNS", "experimental": "as §1"}, "KM12": {"tested_on": "KM12", "experiment": "NCI 60 screen, KM12", "details": "Homo sapiens, Colon", "experimental": "as §1"}}, "data": [{"smiles": "O=C(Cc1ccc(/C=C/C(=O)c2ncc[nH]2)cc1)Nc1ccc(Cl)cc1", "note": "[Compound 25, (E)-2-(-4 (3-(1H-imidazol-2-yl)-3-oxoprop-1-en-1-yl)phenyl)-N-(4-chlorophenyl)acetamide]", "values": [{"measurement": "GI50", "setting": "UACC-257", "result": 7.24, "unit": "µM"}, {"measurement": "GI50", "setting": "MDA-MB-231/ATCC", "result": 4.27, "unit": "µM"}, {"measurement": "GI50", "setting": "EKVX", "result": 5.68, "unit": "µM"}, {"measurement": "GI50", "setting": "SN12C", "result": 2.4, "unit": "µM"}, {"measurement": "GI50", "setting": "DU-145", "result": 1.7, "unit": "µM"}, {"measurement": "GI50", "setting": "UO-31", "result": 1.69, "unit": "µM"}, {"measurement": "GI50", "setting": "MCF7", "result": 0.742, "unit": "µM"}, {"measurement": "GI50", "setting": "HOP-62", "result": 3.19, "unit": "µM"}, {"measurement": "GI50", "setting": "NCI-H522", "result": 2.6, "unit": "µM"}, {"measurement": "GI50", "setting": "HOP-92", "result": 5.74, "unit": "µM"}, {"measurement": "GI50", "setting": "786-0", "result": 1.13, "unit": "µM"}, {"measurement": "GI50", "setting": "A498", "result": 5.48, "unit": "µM"}, {"measurement": "GI50", "setting": "PC-3", "result": 2.39, "unit": "µM"}, {"measurement": "GI50", "setting": "HCC-2998", "result": 3.73, "unit": "µM"}, {"measurement": "GI50", "setting": "SNB-19", "result": 2.32, "unit": "µM"}, {"measurement": "GI50", "setting": "U251", "result": 1.02, "unit": "µM"}, {"measurement": "GI50", "setting": "RPMI-8226", "result": 0.857, "unit": "µM"}, {"measurement": "GI50", "setting": "HT29", "result": 0.886, "unit": "µM"}, {"measurement": "Spindle body / spindle architecture", "setting": "[1]", "result": "the spindle body remained intact"}, {"measurement": "Chromosome alignment / centromere position", "setting": "[1]; cells treated for several hours", "result": "chromosomes were misaligned"}, {"measurement": "GI50", "setting": "OVCAR-5", "result": 3.3, "unit": "µM"}, {"measurement": "GI50", "setting": "SK-MEL-2 [2]", "result": 5.53, "unit": "µM"}, {"measurement": "GI50", "setting": "UACC-62", "result": 3.94, "unit": "µM"}, {"measurement": "GI50", "setting": "HCT-116", "result": 0.848, "unit": "µM"}, {"measurement": "GI50", "setting": "SW-620", "result": 1.43, "unit": "µM"}, {"measurement": "GI50", "setting": "OVCAR-4", "result": 4.11, "unit": "µM"}, {"measurement": "GI50", "setting": "OVCAR-8", "result": 3.65, "unit": "µM"}, {"measurement": "GI50", "setting": "SR", "result": 0.798, "unit": "µM"}, {"measurement": "GI50", "setting": "SK-MEL-2 [3]", "result": 4.81, "unit": "µM"}, {"measurement": "GI50", "setting": "NCI-460", "result": 3.43, "unit": "µM"}, {"measurement": "GI50", "setting": "MALME-3M", "result": 6.24, "unit": "µM"}, {"measurement": "GI50", "setting": "NCI-H23", "result": 2.97, "unit": "µM"}, {"measurement": "GI50", "setting": "MDA-MB-435", "result": 4.14, "unit": "µM"}, {"measurement": "GI50", "setting": "SF-539", "result": 3.33, "unit": "µM"}, {"measurement": "GI50", "setting": "TK-10", "result": 5.41, "unit": "µM"}, {"measurement": "GI50", "setting": "ACHN", "result": 4.04, "unit": "µM"}, {"measurement": "GI50", "setting": "LOX IMVI", "result": 0.87, "unit": "µM"}, {"measurement": "GI50", "setting": "SK-OV-3", "result": 9.74, "unit": "µM"}, {"measurement": "GI50", "setting": "MOLT-4", "result": 1.8, "unit": "µM"}, {"measurement": "GI50", "setting": "HL-60(TB)", "result": 3.8, "unit": "µM"}, {"measurement": "GI50", "setting": "RXF393", "result": 3.05, "unit": "µM"}, {"measurement": "GI50", "setting": "SK-MEL-5", "result": 6.17, "unit": "µM"}, {"measurement": "GI50", "setting": "OVCAR-3", "result": 1.14, "unit": "µM"}, {"measurement": "GI50", "setting": "SF-295", "result": 3.33, "unit": "µM"}, {"measurement": "GI50", "setting": "KM12", "result": 1.3, "unit": "µM"}]}]}
